Results on seven compounds are retold here after patent publication US5079260A, “Method for treating inflammation and compounds and compositions suitable for use therein” (Nova Pharmaceutical Corporation, priority 1990, dated 1992).

For assay [1], the system named is Ear Edema Caused By Tetradecanoylphorbol Acetate. The assay is described as follows: Inhibition of Ear Edema Caused by Tetradecanoylphorbol Acetate (II), Table 7. The format is in vivo, CF-1 Mice. As to conditions: i.p., 3 h. How it is done: Inhibition of Ear Edema Caused by Tetradecanoylphorbol Acetate (II)
CF-1 Mice, 25-30 g body weight, six animals per group were used. Test compounds were administered intraperitoneally or topically as follows. For intraperitoneal administration, the test compound was dissolved in dimethyl sulfoxide or 0.5% methylcellulose and 100 microliters was injected 30 minutes prior to irritant (100 mg/kg, i.p.). […] A solution of the irritant, tetradecanoylphorbol acetate, 200 μg/mL, was added to the surface of the ear, 5 μL to the upper surface and 5 μL to the lower surface. After three hours, the thickness of the ear was measured to 0.01 mm by a micrometer with loose drag, positioned at the lateral-most edge of the mid-point of the pinna. Data were calculated as the inhibition of increased ear thickness compared to control animals receiving only the irritant.

Assay [2] deals with Ear Edema Caused by Xylene. Nature of the assay: Inhibition of Ear Edema Caused by Xylene (II), Table 9. It counts as in vivo, CF-1 mice. As to conditions: i.p., 2 h. How it is done:
Inhibition of Ear Edema Caused by Xylene (II)
CF-1 mice, 25-30 g body weight, six animals per group, were used. The requisite amount of the test compound was dissolved is dimethyl sulfoxide or 0.5% methylcellulose and 100 μL of the solution was injected intraperitoneally 30 minutes prior to the administration the irritant. The irritant xylene was applied to the surface of the ear, 20 μL to the upper surface and 20 μL to the lower surface, After two hours, the thickness of the ear was measured to 0.01 mm by a micrometer with the loose drag positioned at the lateral-most edge of the mid-point of the pinna. Data were calculated as the percent inhibition by the test compound of increased ear thickness compared to control animals receiving only the irritant.

For assay [3], the system named is Ear Edema Caused by Oxazolone. The assay is described as follows: Inhibition of Ear Edema Caused by Oxazolone (II), Table 10. As to conditions: i.p., 24 h. It counts as in vivo, CF-1 mice. How it is done:
Inhibition of Ear Edema Caused by Oxazolone (II)
CF-1 mice, 25-30 g body weight, five to six animals per group were used. The mice were sensitized to the irritant two weeks prior to the test by dribbling 100 μL of a 3% solution of oxazolone in acetone onto the abdominal skin of the animal. Test compounds were administered intraperitoneally as follows. […] The irritant, 3% oxazolone in acetone, was added to the surface of the ear, 5 μL added to the upper surface and 5 μL added to the lower surface. After twenty four hours, the thickness of the ear was measured to 0.01 mm by a micrometer with loose drag, positioned at the lateral-most edge of the mid-point of the pinna. Data were calculated as the inhibition of increased ear thickness compared to control animals' receiving only the irritant.

What is called % Inhibition is the drop in the measured response relative to a control, in per cent. Take `CCOC(=O)[C@H](CC(C)C)NC(=O)OCC1c2ccccc2-c2ccccc21` [NPC 15327, N-[(9H-Fluoren-9-ylmethoxy)carbonyl]-L-leucine ethyl ester]: the “% Inhibition Intraperitoneal” value in assay [1] (10 mg/kg) is listed as 37%; in assay [1] (30 mg/kg), 64%; in assay [1] (100 mg/kg), 77%. In addition, the “% Inhibition” value in assay [2] (10 mg/kg) is listed as 18%; in assay [2] (30 mg/kg), 8%; in assay [2] (100 mg/kg), 19%.

Consider `CC(C)C[C@H](NC(=O)OCC1c2ccccc2-c2ccccc21)C(=O)OCc1ccccc1` [NPC 15328, N-[(9H-Fluoren-9-ylmethoxy)carbonyl]-L-leucine benzyl ester], for which the figures for the “% Inhibition Intraperitoneal” value in assay [1] (10 mg/kg), in assay [1] (30 mg/kg) and in assay [1] (100 mg/kg) were 49%, 47% and 62%, respectively. The “% Inhibition” value in assay [2] (10 mg/kg) is on record as 19%; in assay [2] (30 mg/kg), 29%; in assay [2] (100 mg/kg) it was 13%.

Turning to `Cc1cccc2c1-c1ccccc1C2COC(=O)N[C@@H](CCc1ccccc1)C(=O)O` (stereo partly drawn) [NPC 15961, N-{[9H-(4-Methylfluoren-9-yl)methoxy]carbonyl}-L-homophenylalanine], the “% Inhibition” value in assay [2] (10 mg/kg) was 41%; in assay [2] (30 mg/kg), 41%; in assay [2] (100 mg/kg) it was 57%. Further, the “% Inhibition Intraperitoneal” value in assay [3] (10 mg/kg) worked out at 29%; in assay [3] (30 mg/kg), 23%; in assay [3] (100 mg/kg), 92%.

In the case of `COc1ccc2c(c1)C(CCC(=O)N[C@@H](CC(C)C)C(=O)O)c1ccccc1-2` (stereo partly drawn) [NPC 15968, N-{9H-[3-(2-Methoxyfluoren-9-yl)propionyl]}-L-leucine], the “% Inhibition” value stood at 23% in assay [2] (10 mg/kg), 62% in assay [2] (30 mg/kg) and 57% in assay [2] (100 mg/kg). Moreover, the “% Inhibition Intraperitoneal” value worked out at 24% in assay [3] (10 mg/kg), 24% in assay [3] (30 mg/kg) and 66% in assay [3] (100 mg/kg).

`Cc1cccc2c1C(CCC(=O)N[C@@H](CCc1ccccc1)C(=O)O)c1ccccc1-2` (stereo partly drawn) [NPC 15974, N-{9H-[3-(1-Methylfluoren-9-yl)propionyl]}-L-homophenylalanine]: the “% Inhibition” value in assay [2] (10 mg/kg) stood at 48%; in assay [2] (30 mg/kg) it was 57%; in assay [2] (100 mg/kg), 59%. For the same compound, the entries for the “% Inhibition Intraperitoneal” value in assay [3] (10 mg/kg), in assay [3] (30 mg/kg) and in assay [3] (100 mg/kg) were 0%, 23% and 48%, respectively.

`Cc1cccc2c1-c1ccccc1C2CCC(=O)N[C@@H](CC(C)C)C(=O)O` (stereo partly drawn) [NPC 15975, N-{9H-[3-(4-Methylfluoren-9-yl)propionyl]}-L-leucine quarter hydrate]: the “% Inhibition” value in assay [2] (10 mg/kg) is 51%; in assay [2] (30 mg/kg), 22%; in assay [2] (100 mg/kg), 49%. The “% Inhibition Intraperitoneal” value is reported as 36% in assay [3] (10 mg/kg), 19% in assay [3] (30 mg/kg) and 73% in assay [3] (100 mg/kg).

`CCCC[C@H](NC(=O)CCC1c2ccccc2-c2cccc(C)c21)C(=O)O` (stereo partly drawn) [NPC 15976, N-[9H-[3-(1-Methylfluoren-9-yl)propionyl]}-L-norleucine, quarter hydrate]: the “% Inhibition” value in assay [2] (10 mg/kg) amounted to 59%; in assay [2] (30 mg/kg) it was 33%; in assay [2] (100 mg/kg) it was 62%. Moreover, the “% Inhibition Intraperitoneal” value in assay [3] (10 mg/kg) is 10%; in assay [3] (30 mg/kg), 8%; in assay [3] (100 mg/kg), 73%.
